Measured values as given in ChEMBL document CHEMBL1123144, “Studies on 4(1H)-quinazolinones. 5. Synthesis and antiinflammatory activity of 4(1H)-quinazolinone derivatives” (J Med Chem, 1985).
Calls of active or inactive are those of the source. The calls are words filed in the database; no cut-off is given here.

Tests used:
[1] = system: Rattus norvegicus; assay: Percent inhibition against carrageenan-induced rat paw edema at 50 mg/kg dose administered perorally; 41-50%; type: functional; conditions: route oral
[2] = system: Rattus norvegicus; assay: Percent inhibition against carrageenan-induced rat paw edema at 50 mg/kg dose administered perorally; type: functional; conditions: route oral
[3] = system: Rattus norvegicus; assay: Percent inhibition against carrageenan-induced rat paw edema at 50 mg/kg dose administered perorally; 11-20%; type: functional; conditions: route oral
[4] = system: Rattus norvegicus; assay: Percent inhibition against carrageenan-induced rat paw edema at 50 mg/kg dose administered perorally; 0-10%; type: functional; conditions: route oral
[5] = system: Rattus norvegicus; assay: Percent inhibition against carrageenan-induced rat paw edema at 50 mg/kg dose administered perorally; 21-30%; type: functional; conditions: route oral
[6] = system: Rattus norvegicus; assay: Percent inhibition against carrageenan-induced rat paw edema at 50 mg/kg dose administered perorally; 31-40%; type: functional; conditions: route oral
[7] = system: Rattus norvegicus; assay: Anti-inflammatory activity following oral administration; type: functional
[8] = system: Rattus norvegicus; assay: Analgesic activity following oral administration at a dose 30 mg/kg; type: functional
[9] = system: Rattus norvegicus; assay: Analgesic activity by oral administration route; type: functional
[10] = system: Mus musculus; assay: Ulcer index by number of mice bearing ulcer at dose 60 mg/kg out of 5 mice tested; type: functional
[11] = system: Mus musculus; assay: Toxicity by number of mice dead at dose 500 mg/kg out of 5 mice tested by oral administration route; Value represented as 1/5; type: organism-based; design: dose 500 mg/kg, route oral; conditions: in vivo
[12] = system: Mus musculus; assay: Number of mice bearing ulcer at dose 60 mg/kg out of 5 mices tested; type: functional
[13] = system: Mus musculus; assay: Toxicity by number of mice dead at dose 500 mg/kg out of 5 mice tested by oral administration route; Value represented as 5/5; type: organism-based; design: dose 500 mg/kg, route oral; conditions: in vivo
[14] = system: Mus musculus; assay: Number of mice bearing ulcer at dose 45 mg/kg out of 5 mices tested; type: functional
[15] = system: Mus musculus; assay: Ulcer index by number of mice bearing ulcer at dose 45 mg/kg out of 5 mice tested; type: functional
[16] = system: Mus musculus; assay: Number of mice bearing ulcer at dose 48 mg/kg out of 5 mices tested; type: functional
[17] = system: Mus musculus; assay: Toxicity by number of mice dead at dose 500 mg/kg out of 5 mice tested by oral administration route; Value represented as 0/5; type: organism-based; design: dose 500 mg/kg, route oral; conditions: in vivo
[18] = system: Mus musculus; assay: Ulcer index by number of mice bearing ulcer at dose 48 mg/kg out of 5 mice tested; type: functional
[19] = system: Rattus norvegicus; assay: Analgesic activity by oral administration of 200 mg/kg; Not effective; type: functional, organism-based; design: dose 200 mg/kg
[20] = system: Mus musculus; assay: Number of mice bearing ulcer at dose 30 mg/kg out of 5 mices tested; type: functional
[21] = system: Mus musculus; assay: Ulcer index by number of mice bearing ulcer at dose 30 mg/kg out of 5 mice tested; type: functional

CC(C)n1c(-c2ccccc2Cl)nc(=O)c2ccccc21
inhibition in vivo at 50 mg/kg [1]: 50%

COc1ccc2c(c1)c(=O)nc(C(C)C)n2-c1ccccc1
inhibition in vivo at 50 mg/kg [2]: ≥ 51%

CC(C)c1nc(=O)c2ccccc2n1-c1ccccc1C(=O)O
inhibition in vivo at 50 mg/kg [3]: 20%

CCN(CC)Cc1nc(=O)c2ccccc2n1-c1ccccc1
inhibition in vivo at 50 mg/kg [4]: 10%

Cc1ccc(-c2nc(=O)c3ccccc3n2C(C)C)cc1
inhibition in vivo at 50 mg/kg [4]: 10%

O=c1nc(C2CCC2)n(-c2ccccc2)c2ccccc12
inhibition in vivo at 50 mg/kg [5]: 30%

CC(C)n1c(-c2ccccc2Cl)nc(=O)c2cc(Cl)ccc21
inhibition in vivo at 50 mg/kg [1]: 50%

O=c1nc(C2CCC2)n(-c2ccc(Cl)cc2)c2ccccc12
inhibition in vivo at 50 mg/kg [5]: 30%

Cc1ccccc1-n1c(C(C)C)nc(=O)c2ccccc21
inhibition in vivo at 50 mg/kg [6]: 40%

CC(C)n1c(-c2ccc([N+](=O)[O-])cc2)nc(=O)c2ccccc21
inhibition in vivo at 50 mg/kg [4]: 10%

CC(C)c1nc(=O)c2ccc(N)cc2n1-c1ccccc1
inhibition in vivo at 50 mg/kg [3]: 20%

CC(C)c1nc(=O)c2ccccc2n1-c1ccccc1Cl
inhibition in vivo at 50 mg/kg [3]: 20%

CC(C)n1c(-c2ccccc2Cl)nc(=O)c2cc(F)ccc21
inhibition in vivo at 50 mg/kg [5]: 30%

CC(C)c1nc(=O)c2ccc([N+](=O)[O-])cc2n1-c1ccccc1
inhibition in vivo at 50 mg/kg [4]: 10%

CC(C)n1c(-c2ccc(Cl)cc2)nc(=O)c2cc(Cl)ccc21
inhibition in vivo at 50 mg/kg [4]: 10%

O=c1nc(C(F)(F)F)n(-c2ccccc2)c2ccccc12
inhibition in vivo at 50 mg/kg [4]: 10%

O=c1nc(C2CCC2)n(-c2ccc([N+](=O)[O-])cc2)c2ccccc12
inhibition in vivo at 50 mg/kg [4]: 10%

CC(C)c1nc(=O)c2ccccc2n1-c1ccccc1
ED30 [7]: 30 mg/kg
inhibition in vivo at 50 mg/kg [6]: 40%
ED30 [8]: 70 mg/kg

CC(C)c1nc2ccccc2c(=O)n1-c1ccccc1
inhibition in vivo at 50 mg/kg [5]: 30%

CC(C)n1c(-c2ccc(Cl)cc2)nc(=O)c2ccc(Cl)cc21
inhibition in vivo at 50 mg/kg [5]: 30%

COc1ccc2c(c1)c(=O)nc(-c1ccccc1F)n2C(C)C
inhibition in vivo at 50 mg/kg [5]: 30%

CC(C)n1c(-c2cccc(Cl)c2)nc(=O)c2ccccc21
inhibition in vivo at 50 mg/kg [1]: 50%

CN(C)c1nc(=O)c2ccccc2n1-c1ccccc1
inhibition in vivo at 50 mg/kg [4]: 10%

CC(=O)c1ccc(-n2c(C(C)C)nc(=O)c3ccccc32)cc1
inhibition in vivo at 50 mg/kg [5]: 30%

Cc1ccc2c(=O)nc(-c3ccccc3)n(C(C)C)c2c1
inhibition in vivo at 50 mg/kg [4]: 10%

CC(C)n1c(-c2ccc(F)cc2)nc(=O)c2ccc(Cl)cc21
inhibition in vivo at 50 mg/kg [5]: 30%

CC(C)n1c(-c2ccc(F)cc2)nc(=O)c2ccccc21
inhibition in vivo at 50 mg/kg [1]: 50%

CC(C)n1c(-c2ccc(N)cc2)nc(=O)c2ccccc21
inhibition in vivo at 50 mg/kg [4]: 10%

CCN(CC)Cc1nc(=O)c2ccccc2n1-c1cccc(C(F)(F)F)c1
inhibition in vivo at 50 mg/kg [5]: 30%

O=c1nc(C2CC2)n(-c2ccc(F)cc2)c2ccccc12
inhibition in vivo at 50 mg/kg [2]: ≥ 51%

CC(C)(C)c1nc(=O)c2ccccc2n1-c1ccccc1
inhibition in vivo at 50 mg/kg [4]: 10%

CC(C)n1c(-c2ccccc2Br)nc(=O)c2ccccc21
inhibition in vivo at 50 mg/kg [4]: 10%

COc1cccc2c1c(=O)nc(-c1ccccc1)n2C(C)C
inhibition in vivo at 50 mg/kg [3]: 20%

CC(C)c1nc(=O)n(-c2ccccc2)c2ccccc12
inhibition in vivo at 50 mg/kg [4]: 10%

CC(C)n1c(-c2ccccc2F)nc(=O)c2ccc(Cl)cc21
inhibition in vivo at 50 mg/kg [6]: 40%

O=c1nc(C2CC2)n(-c2ccc(Cl)cc2)c2ccccc12
inhibition in vivo at 50 mg/kg [4]: 10%

CC(C)n1c(-c2ccc(F)cc2)nc(=O)c2cc(Cl)ccc21
ED30 [7]: 18 mg/kg
ED30 [9]: 100 mg/kg
inhibition in vivo at 50 mg/kg [1]: 50%

O=c1nc(CCl)n(-c2ccccc2)c2ccccc12
inhibition in vivo at 50 mg/kg [4]: 10%

CC(C)n1c(-c2ccccc2F)nc(=O)c2ccccc21
ED30 [7]: 20 mg/kg
inhibition in vivo at 50 mg/kg [2]: ≥ 51%
ED30 [9]: 65 mg/kg
Ulcer Index [10]: 0.1
Toxicity [11]: 1
No. of mice [12]: 1

CC(C)c1nc(=O)c2ccccc2n1-c1ccc(N)cc1
inhibition in vivo at 50 mg/kg [5]: 30%

CC(C)n1c(-c2ccccc2)nc(=O)c2cc(Br)ccc21
inhibition in vivo at 50 mg/kg [5]: 30%

Cc1nc(=O)c2ccccc2n1-c1ccccc1
inhibition in vivo at 50 mg/kg [4]: 10%

CC(C)n1c(-c2ccc(Cl)cc2)nc(=O)c2ccccc21
ED30 [7]: 15 mg/kg
Toxicity [13]: 5
ED30 [9]: 44 mg/kg
No. of mice [14]: 0
inhibition in vivo at 50 mg/kg [1]: 50%
Ulcer Index [15]: 0

CC(C)n1c(-c2ccccc2F)nc(=O)c2cc(Cl)ccc21
inhibition in vivo at 50 mg/kg [3]: 20%

CC(C)n1c(-c2ccccc2)nc(=O)c2ccccc21
inhibition in vivo at 50 mg/kg [1]: 50%

CC(C)c1nc(=O)c2ccc(Cl)cc2n1-c1ccccc1
ED30 [7]: 21 mg/kg
inhibition in vivo at 50 mg/kg [2]: ≥ 51%
ED30 [9]: 80 mg/kg

CC(C)n1c(-c2ccccc2)nc2ccccc2c1=O
inhibition in vivo at 50 mg/kg [5]: 30%

CC(C)c1nc(=O)c2ccccc2n1-c1ccccc1C(N)=O
inhibition in vivo at 50 mg/kg [4]: 10%

CC(C)c1nc(=O)c2ccccc2n1-c1ccc([N+](=O)[O-])cc1
inhibition in vivo at 50 mg/kg [6]: 40%

COc1ccc2c(c1)c(=O)nc(-c1ccccc1)n2C(C)C
inhibition in vivo at 50 mg/kg [6]: 40%

CC(=O)c1ccc2c(c1)c(=O)nc(C(C)C)n2-c1ccccc1
inhibition in vivo at 50 mg/kg [4]: 10%

CC(C)c1nc(=O)c2ccccc2n1-c1ccc(F)cc1
ED30 [7]: 30 mg/kg
ED30 [9]: 76 mg/kg
inhibition in vivo at 50 mg/kg [1]: 50%

CC(C)n1c(-c2ccccc2)nc(=O)c2c(Cl)cccc21
inhibition in vivo at 50 mg/kg [3]: 20%

O=c1nc(C2CC2)n(-c2ccc([N+](=O)[O-])cc2)c2ccccc12
inhibition in vivo at 50 mg/kg [4]: 10%

CC(C)n1c(-c2ccccc2)nc(=O)c2cc(F)ccc21
inhibition in vivo at 50 mg/kg [6]: 40%

O=c1nc(C2CC2)n(-c2ccccc2)c2ccccc12
inhibition in vivo at 50 mg/kg [2]: ≥ 51%

CC(C)n1c(-c2ccccc2)nc(=O)c2ccc(Cl)cc21
ED30 [7]: 16 mg/kg
No. of mice [16]: 3
Toxicity [17]: 0
Ulcer Index [18]: 0.2
inhibition in vivo at 50 mg/kg [1]: 50%
ED30 [19]: inactive

O=c1nc(CCl)n(-c2cccc(C(F)(F)F)c2)c2ccccc12
inhibition in vivo at 50 mg/kg [4]: 10%

CC(C)n1c(-c2ccccc2)nc(=O)c2cc(Cl)ccc21
inhibition in vivo at 50 mg/kg [1]: 50%

O=c1nc(C2CCCCCC2)n(-c2ccccc2)c2ccccc12
inhibition in vivo at 50 mg/kg [4]: 10%

CC(C)Cc1nc(=O)c2ccccc2n1-c1ccccc1
inhibition in vivo at 50 mg/kg [5]: 30%

COC(=O)CCc1nc(=O)c2ccccc2n1-c1ccccc1
inhibition in vivo at 50 mg/kg [4]: 10%

CC(C)n1c(-c2ccc(Br)cc2)nc(=O)c2ccccc21
inhibition in vivo at 50 mg/kg [1]: 50%

CC(C)C1NC(=O)c2ccccc2N1c1ccccc1 (configuration not stated)
inhibition in vivo at 50 mg/kg [4]: 10%

CC(C)c1nc(=O)c2ccccc2n1-c1cccc(C(F)(F)F)c1
inhibition in vivo at 50 mg/kg [5]: 30%

CC(C)c1nc(=O)c2ccccc2n1-c1ccc(Cl)cc1
inhibition in vivo at 50 mg/kg [2]: ≥ 51%

CC(C)c1nc(=O)c2cc(CC(=O)O)ccc2n1-c1ccccc1
inhibition in vivo at 50 mg/kg [4]: 10%

Cc1ccc2c(-c3ccccc3)nc(=O)n(C(C)C)c2c1 [PROQUAZONE]
ED30 [7]: 10 mg/kg
No. of mice [20]: 4
Ulcer Index [21]: 0.12
Toxicity [17]: 0
ED30 [9]: 20 mg/kg
inhibition in vivo at 50 mg/kg [1]: 50%

Cc1ccc2c(=O)nc(C(C)C)n(-c3ccccc3)c2c1
inhibition in vivo at 50 mg/kg [5]: 30%

O=c1nc(C2CC2)n(-c2cccc(C(F)(F)F)c2)c2ccccc12
inhibition in vivo at 50 mg/kg [4]: 10%

CC(C)N1c2ccccc2C(=O)NC1c1ccccc1Cl (configuration not stated)
inhibition in vivo at 50 mg/kg [4]: 10%

Cc1nc(=O)c2ccccc2n1-c1cccc(C(F)(F)F)c1
inhibition in vivo at 50 mg/kg [4]: 10%

CCOC(=O)C(C)c1nc(=O)c2ccccc2n1-c1ccccc1 (configuration not stated)
inhibition in vivo at 50 mg/kg [5]: 30%

CC(C)c1nc(=O)c2ccccc2n1-c1ccc(CC(=O)O)cc1
inhibition in vivo at 50 mg/kg [3]: 20%

Cc1ccc2c(c1)c(=O)nc(C(C)C)n2-c1ccccc1
inhibition in vivo at 50 mg/kg [5]: 30%

CC(C)n1c(-c2ccc(Cl)c(Cl)c2)nc(=O)c2ccccc21
inhibition in vivo at 50 mg/kg [1]: 50%

COc1ccccc1-c1nc(=O)c2ccccc2n1C(C)C
inhibition in vivo at 50 mg/kg [4]: 10%

CCCCc1nc(=O)c2ccccc2n1-c1ccccc1
inhibition in vivo at 50 mg/kg [4]: 10%

O=C(O)CCc1nc(=O)c2ccccc2n1-c1ccccc1
inhibition in vivo at 50 mg/kg [4]: 10%
